Measurements as given in patent US9447086B2, “6-amino acid heteroaryldihydropyrimidines for the treatment and prophylaxis of hepatitis B virus infection” (priority 2012, dated 2016).
In brackets after ≈: the same amount, converted by molar mass.

Legend:
[1] = Lyophilisation solubility assay (Lysa); format: physicochemical; settings: phosphate buffer, pH 6.5, aqueous buffer, thermodynamic from solid
Experimental: The aqueous solubility is an important physico-chemical property that plays a significant role in various physical and biological processes. It is desirable to have good solubility which enables good permeability and gastric and intestinal absorption, linear dose proportionality, less PK variability, and easy formulation for PD/PK studies. […] Lyophilisation solubility assay (Lysa) is a well adopted high throughput assay to measure compound solubility in industry.
Samples are prepared in duplicate from 10 mM DMSO stock solutions. After evaporation of DMSO with a centrifugal vacuum evaporator, the residue is solved in 0.05 M phosphate buffer (pH 6.5), stirred for one hour and shaken for two hours. After one night, the solutions is filtered using a microtiter filter plate and the filtrate and its 1/10 dilution are then analyzed by direct UV measurement or by HPLC-UV. […] The results are in μg/mL.

[2] = Metabolic stability study in human microsome; format: in vitro ADME
Experimental: Human Microsomes were preincubated with test compound for 10 min at 37° C. in 100 mM phosphate buffer, pH 7.4. The reactions were initiated by adding NADPH or NADPH regenerating system to give a final incubation volume of 400 μL. For NADPH system, the final incubations contained 1 μM test compound, 0.5 mg/mL liver microsomal protein, 1 mM NADPH in 100 mM phosphate buffer, pH 7.4. For the NADPH regenerating system, the final incubations contained 1 μM test compound, 0.5 mg/mL liver microsomal protein, 3 mM glucose 6-phosphate, 1 mM NADP, 3 mM MgCl2 and 0.05 mg/mL glucose 6-phosphate dehydrogenase in 100 mM phosphate buffer, pH 7.4. After incubation times of 0, 3, 6, 9, 15 and 30 minutes at 37° C., 50 μL samples was removed and transferred to 150 μL methanol solution which was maintained at 4° C. containing 2 μM tolbutamide (internal standard) to terminating the reaction. Following precipitation and centrifugation, the amount of compound remaining in the samples were determined by LC-MS/MS. Controls of no NADPH or NADPH regenerating system at zero and 30 min were also prepared and analyzed.

Row | solubility thermodynamic [1] [µg/mL] | Human Hepatic Clearance [2] [mL/min/kg] | Compound
1 | > 659 | 3.38 | COC(=O)C1=C(CN2CC(F)(F)C[C@H]2C(=O)O)NC(c2nccs2)=N[C@H]1c1cc(F)c(F)cc1Cl [Example 18, (R)-6-((S)-2-Carboxy-4,4-difluoro-pyrrolidin-1-ylmethyl)-4-(2-chloro-4,5-difluoro-phenyl)-2-thiazol-2-yl-1,4-dihydro-pyrimidine-5-carboxylic acid methyl ester]
2 | 409 (≈ 689 µM) | 8.45 | CCOC(=O)C1=C(CN2CC(F)(F)C[C@H]2C(=O)O)NC(c2nc(C(F)(F)F)cn2C)=N[C@H]1c1ccc(F)cc1Cl [Example 40, (R)-6-((S)-2-Carboxy-4,4-difluoro-pyrrolidin-1-ylmethyl)-4-(2-chloro-4-fluoro-phenyl)-2-(1-methyl-4-trifluoromethyl-1H-imidazol-2-yl)-1,4-dihydro-pyrimidine-5-carboxylic acid ethyl ester]
3 | 398 (≈ 752 µM) | 6.12 | COC(=O)C1=C(CN2CC(F)(F)CCC2C(=O)O)NC(c2nccs2)=N[C@H]1c1ccc(F)cc1Cl (stereo partly drawn) [Example 7, (R)-6-(2-Carboxy-5,5-difluoro-piperidin-1-ylmethyl)-4-(2-chloro-4-fluoro-phenyl)-2-thiazol-2-yl-1,4-dihydro-pyrimidine-5-carboxylic acid methyl ester]
4 | 594 (≈ 1210 µM) | 2.33 | COC(=O)C1=C(CN2CCOC[C@H]2C(=O)O)NC(c2nccn2C)=NC1c1ccc(F)cc1Cl (stereo partly drawn) [Example 13, (S)-4-[6-(2-Chloro-4-fluoro-phenyl)-5-methoxycarbonyl-2-(1-methyl-1H-imidazol-2-yl)-3,6-dihydro-pyrimidin-4-ylmethyl]-morpholine-3-carboxylic acid]
5 | > 593 | 7 | CCOC(=O)C1=C(CN2CCOC[C@H]2C(=O)O)NC(c2cccc(C)n2)=N[C@H]1c1ccc(F)cc1Cl [Example 37, (S)-4-[(R)-6-(2-Chloro-4-fluoro-phenyl)-5-ethoxycarbonyl-2-(6-methyl-pyridin-2-yl)-3,6-dihydro-pyrimidin-4-ylmethyl]-morpholine-3-carboxylic acid]
6 | – | 0 | CCOC(=O)C1=C(CN2CCOC[C@H]2C(=O)O)NC(c2nccs2)=N[C@H]1c1ccc(Cl)cc1 [Example 126, (3S)-4-[[(4S)-4-(4-Chlorophenyl)-5-ethoxycarbonyl-2-(1,3-thiazol-2-yl)-1,4-dihydropyrimidin-6-yl]methyl]morpholine-3 carboxylic acid]
7 | 668 (≈ 1260 µM) | 10.02 | CCOC(=O)C1=C(CN2CC(F)(F)C[C@H]2C(=O)O)NC(c2nccs2)=NC1c1ccc(F)cc1Cl (stereo partly drawn) [Example 26, 6-((S)-2-Carboxy-4,4-difluoro-pyrrolidin-1-ylmethyl)-4-(2-chloro-4-fluoro-phenyl)-2-thiazol-2-yl-1,4-dihydro-pyrimidine-5-carboxylic acid ethyl ester]
8 | > 627 | 3.53 | COC(=O)C1=C(CN2CC(F)(F)C[C@H]2C(=O)O)NC(c2nc(C)co2)=N[C@H]1c1ccc(F)cc1Cl [Example 15, (R)-6-((S)-2-Carboxy-4,4-difluoro-pyrrolidin-1-ylmethyl)-4-(2-chloro-4-fluoro-phenyl)-2-(4-methyl-oxazol-2-yl)-1,4-dihydro-pyrimidine-5-carboxylic acid methyl ester]
9 | > 665 | 6.46 | COC(=O)C1=C(CN2CCOC[C@H]2C(=O)O)NC(c2nc(C(F)F)cs2)=N[C@H]1c1ccc(F)cc1Cl [Example 88, (3S)-4-[[(4R)-4-(2-Chloro-4-fluoro-phenyl)-2-[4-(difluoromethyl)thiazol-2-yl]-5-methoxycarbonyl-1,4-dihydropyrimidin-6-yl]methyl]morpholine-3-carboxylic acid]
10 | 828 (≈ 1610 µM) | 3.08 | COC(=O)C1=C(CN2CCOC[C@H]2C(=O)O)NC(c2nccs2)=N[C@H]1c1cc(F)c(F)cc1Cl [Example 21, (S)-4-[(R)-6-(2-Chloro-4,5-difluoro-phenyl)-5-methoxycarbonyl-2-thiazol-2-yl-3,6-dihydro-pyrimidin-4-ylmethyl]-morpholine-3-carboxylic acid]
11 | > 620 | 6.33 | COC(=O)C1=C(CN2CC(F)(F)C[C@H]2C(=O)O)NC(c2cc(C)ccn2)=N[C@H]1c1ccc(F)cc1Cl [Example 8, (R)-6-((S)-2-Carboxy-4,4-difluoro-pyrrolidin-1-ylmethyl)-4-(2-chloro-4-fluoro-phenyl)-2-(4-methyl-pyridin-2-yl)-1,4-dihydro-pyrimidine-5-carboxylic acid methyl ester]
12 | 667 (≈ 1280 µM) | 6.56 | COC(=O)C1=C(CN2CC(F)(F)C[C@H]2C(=O)O)NC(c2nccs2)=N[C@H]1c1ccc(C#N)cc1Cl [Example 30, (R)-6-((S)-2-Carboxy-4,4-difluoro-pyrrolidin-1-ylmethyl)-4-(2-chloro-4-cyano-phenyl)-2-thiazol-2-yl-1,4-dihydro-pyrimidine-5-carboxylic acid methyl ester]
13 | > 596 | 6.8 | COC(=O)C1=C(CN2CSCCC2C(=O)O)NC(c2nccs2)=N[C@H]1c1ccc(F)cc1Cl (stereo partly drawn) [Example 86, 3-[[(4R)-4-(2-Chloro-4-fluoro-phenyl)-5-methoxycarbonyl-2-thiazol-2-yl-1,4-dihydropyrimidin-6-yl]methyl]-1,3-thiazinane-4-carboxylic acid]
14 | 590 (≈ 1030 µM) | 6.42 | CCOC(=O)C1=C(CN2CC(F)(F)C[C@H]2C(=O)O)NC(c2nccs2)=N[C@H]1c1cccc(F)c1Br [Example 67, (R)-4-(2-Bromo-3-fluoro-phenyl)-6-((S)-2-carboxy-4,4-difluoro-pyrrolidin-1-ylmethyl)-2-thiazol-2-yl-1,4-dihydro-pyrimidine-5-carboxylic acid ethyl ester]
15 | – | 8.79 | COC(=O)C1=C(CN2CC(F)(F)C[C@H]2C(=O)O)NC(c2cc(C)cs2)=N[C@H]1c1ccc(F)cc1Cl [Example 27, (R)-6-((S)-2-Carboxy-4,4-difluoro-pyrrolidin-1-ylmethyl)-4-(2-chloro-4-fluoro-phenyl)-2-(4-methyl-thiophen-2-yl)-1,4-dihydro-pyrimidine-5-carboxylic acid methyl ester]
16 | – | 7.51 | COC(=O)C1=C(CN2CC(F)(F)C[C@H]2C(=O)O)NC(c2nccs2)=NC1c1ccc(F)cc1Cl (stereo partly drawn) [Example 1, 6-((S)-2-Carboxy-4,4-difluoro-pyrrolidin-1-ylmethyl)-4-(2-chloro-4-fluoro-phenyl)-2-thiazol-2-yl-1,4-dihydro-pyrimidine-5-carboxylic acid methyl ester]

Row | Compound | solubility thermodynamic [1] [µg/mL] | Human Hepatic Clearance [2] [mL/min/kg]
17 | CC(C)(C)OC(=O)C1=C(CN2CCOC[C@H]2C(=O)O)NC(c2nccs2)=N[C@H]1c1ccc(F)cc1Cl [Example 105, (S)-4-[5-tert-Butoxycarbonyl-6-(2-chloro-4-fluoro-phenyl)-2-thiazol-2-yl-3,6-dihydro-pyrimidin-4-ylmethyl]-morpholine-3-carboxylic acid] | – | 8.13
